Laboratory results taken from patent US9067926B2, “Fluoromethyl-5,6-dihydro-4H-[1,3]OXAZINES” (F. Hoffmann-La Roche AG, priority 2012, dated 2015).

Molecular target: T1, BACE1 (Homo sapiens, UniProt P56817)
T1 construct: endogenous in cells; host or cells: HEK293 APP cells
Assay: Cellular Aβ-lowering assay (Abeta 40 AlphaLISA)
Format: cell-based
Conditions: HEK293 APP cells, 18-20 hrs incubation, Aβ 40 in culture supernatant; read-out: BACE1 cell act. Aβ40 IC50
Description: Cellular Aβ-Lowering Assay:
The Abeta 40 AlphaLISA Assay can be used. The HEK293 APP cells were seeded in 96 well Microtiter plates in cell culture medium (Iscove's, plus 10% (vv) fetal bovine serum, penicillinstreptomycin) to about 80% confluency and the compounds were added at a 3× concentration in 13 volume of culture medium (final DMSO concentration was kept at 1% vv). After 18-20 hrs incubation at 37° C. and 5% CO2 in a humidified incubator, the culture supernatants were harvested for the determination of Aβ 40 concentrations using Perkin-Elmer Human Amyloid beta 1-40 (high specificity) Kit (Cat# AL275C).
Levels of Aβ 40 in the culture supernatants were calculated as percentage of maximum signal (cells treated with 1% DMSO without inhibitor). The IC50 values were calculated using the Excel XLfit software.

T1 sequence (P56817 46-501): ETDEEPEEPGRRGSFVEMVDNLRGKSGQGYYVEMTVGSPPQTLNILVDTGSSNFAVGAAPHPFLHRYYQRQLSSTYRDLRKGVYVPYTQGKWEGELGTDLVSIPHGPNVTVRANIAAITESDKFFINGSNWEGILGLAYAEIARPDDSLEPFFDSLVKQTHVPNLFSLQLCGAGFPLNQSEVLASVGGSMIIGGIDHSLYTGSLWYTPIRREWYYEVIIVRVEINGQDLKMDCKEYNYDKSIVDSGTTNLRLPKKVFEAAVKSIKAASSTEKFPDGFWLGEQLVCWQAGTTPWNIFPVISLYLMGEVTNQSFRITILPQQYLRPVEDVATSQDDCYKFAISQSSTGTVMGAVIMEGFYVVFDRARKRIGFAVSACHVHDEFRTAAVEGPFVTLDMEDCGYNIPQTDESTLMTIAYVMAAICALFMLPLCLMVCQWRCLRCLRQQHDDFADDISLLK

For `C[C@@]1(c2cc(NC(=O)c3ccc(OCC(F)(F)F)cn3)ccc2F)C[C@@H](C(F)(F)F)OC(N)=N1` [Example 18, N-(3-((4S,6S)-2-Amino-4-methyl-6-(trifluoromethyl)-5,6-dihydro-4H-1,3-oxazin-4-yl)-4-fluorophenyl)-5-(2,2,2-trifluoroethoxy)picolinamide], the IC50 was 8 nM.

`C[C@@]1(c2cc(NC(=O)c3cnc(CF)cn3)ccc2F)C[C@@H](C(F)(F)F)OC(N)=N1` [Example 19, N-(3-((4S,6S)-2-Amino-4-methyl-6-(trifluoromethyl)-5,6-dihydro-4H-1,3-oxazin-4-yl)-4-fluorophenyl)-5-(fluoromethyl)pyrazine-2-carboxamide] showed an IC50 of 6 nM.

Molecule `C[C@@]1(c2cc(NC(=O)c3cnc(C(F)F)cn3)ccc2F)C[C@@H](C(F)(F)F)OC(N)=N1` [Example 20, N-(3-((4S,6S)-2-Amino-4-methyl-6-(trifluoromethyl)-5,6-dihydro-4H-1,3-oxazin-4-yl)-4-fluorophenyl)-5-(difluoromethyl)pyrazine-2-carboxamide] has an IC50 of 5 nM.

Work on `Cc1cnc(C(=O)Nc2ccc(F)c([C@]3(C)C[C@@H](C(F)(F)F)OC(N)=N3)c2)cn1` [Example 21, N-(3-((4S,6S)-2-Amino-4-methyl-6-(trifluoromethyl)-5,6-dihydro-4H-1,3-oxazin-4-yl)-4-fluorophenyl)-5-methylpyrazine-2-carboxamide] yielded an IC50 of 59 nM.

Work on `C[C@@]1(c2cc(NC(=O)c3cnc(OCF)cn3)ccc2F)C[C@@H](C(F)(F)F)OC(N)=N1` [Example 23, N-(3-((4S,6S)-2-Amino-4-methyl-6-(trifluoromethyl)-5,6-dihydro-4H-1,3-oxazin-4-yl)-4-fluorophenyl)-5-(fluoromethoxy)pyrazine-2-carboxamide] yielded an IC50 of 1 nM.

For `C[C@@]1(c2cc(NC(=O)c3cnc(OC(F)F)cn3)ccc2F)C[C@@H](C(F)(F)F)OC(N)=N1` [Example 24, N-(3-((4S,6S)-2-Amino-4-methyl-6-(trifluoromethyl)-5,6-dihydro-4H-1,3-oxazin-4-yl)-4-fluorophenyl)-5-(difluoromethoxy)pyrazine-2-carboxamide], the IC50 was 3 nM.

In the case of `C[C@@]1(c2cc(NC(=O)c3coc(CF)n3)ccc2F)C[C@@H](C(F)(F)F)OC(N)=N1` [Example 25, N-(3-((4S,6S)-2-Amino-4-methyl-6-(trifluoromethyl)-5,6-dihydro-4H-1,3-oxazin-4-yl)-4-fluorophenyl)-2-(fluoromethyl)oxazole-4-carboxamide], the IC50 is reported as 0.8 nM.

`C[C@@]1(c2cc(NC(=O)c3nn(C(F)F)cc3Cl)ccc2F)C[C@@H](C(F)(F)F)OC(N)=N1` [Example 26, N-(3-((4S,6S)-2-Amino-4-methyl-6-(trifluoromethyl)-5,6-dihydro-4H-1,3-oxazin-4-yl)-4-fluorophenyl)-4-chloro-1-(difluoromethyl)-1H-pyrazole-3-carboxamide] gave an IC50 of 1 nM.

Molecule `Cc1cc(C#N)cnc1C(=O)Nc1ccc(F)c([C@]2(CF)C[C@@H](C(F)(F)F)OC(N)=N2)c1` [Example 27, N-(3-((4S,6S)-2-Amino-4-(fluoromethyl)-6-(trifluoromethyl)-5,6-dihydro-4H-1,3-oxazin-4-yl)-4-fluorophenyl)-5-cyano-3-methylpicolinamide] has an IC50 of 2 nM.

`N#Cc1cnc(C(=O)Nc2ccc(F)c([C@]3(CF)C[C@@H](C(F)(F)F)OC(N)=N3)c2)c(Cl)c1` [Example 28, N-(3-((4S,6S)-2-Amino-4-(fluoromethyl)-6-(trifluoromethyl)-5,6-dihydro-4H-1,3-oxazin-4-yl)-4-fluorophenyl)-3-chloro-5-cyanopicolinamide] gave an IC50 of 11 nM.

With `NC1=N[C@](CF)(c2cc(NC(=O)c3ccc(OC(F)F)cn3)ccc2F)C[C@@H](C(F)(F)F)O1` [Example 31, N-(3-((4S,6S)-2-Amino-4-(fluoromethyl)-6-(trifluoromethyl)-5,6-dihydro-4H-1,3-oxazin-4-yl)-4-fluorophenyl)-5-(difluoromethoxy)picolinamide] the IC50 was 7 nM.

Work on `NC1=N[C@](CF)(c2cc(NC(=O)c3ccc(OC(F)(F)F)cn3)ccc2F)C[C@@H](C(F)(F)F)O1` [Example 32, N-(3-((4S,6S)-2-Amino-4-(fluoromethyl)-6-(trifluoromethyl)-5,6-dihydro-4H-1,3-oxazin-4-yl)-4-fluorophenyl)-5-(trifluoromethoxy)picolinamide] yielded an IC50 of 7 nM.

`NC1=N[C@](CF)(c2cc(NC(=O)c3ccc(C(F)F)cn3)ccc2F)C[C@@H](C(F)(F)F)O1` [Example 33, N-(3-((4S,6S)-2-Amino-4-(fluoromethyl)-6-(trifluoromethyl)-5,6-dihydro-4H-1,3-oxazin-4-yl)-4-fluorophenyl)-5-(difluoromethyl)picolinamide] was tested, and the IC50 was 10 nM.

For `NC1=N[C@](CF)(c2cc(NC(=O)c3ccc(OCC(F)(F)F)cn3)ccc2F)C[C@@H](C(F)(F)F)O1` [Example 34, N-(3-((4S,6S)-2-Amino-4-(fluoromethyl)-6-(trifluoromethyl)-5,6-dihydro-4H-1,3-oxazin-4-yl)-4-fluorophenyl)-5-(2,2,2-trifluoroethoxy)picolinamide], the IC50 was 71 nM.

`NC1=N[C@](CF)(c2cc(NC(=O)c3cnc(CF)cn3)ccc2F)C[C@@H](C(F)(F)F)O1` [Example 37, N-(3-((4S,6S)-2-Amino-4-(fluoromethyl)-6-(trifluoromethyl)-5,6-dihydro-4H-1,3-oxazin-4-yl)-4-fluorophenyl)-5-(fluoromethyl)ypyrazine-2-carboxamide] showed an IC50 of 53 nM.

With `CC#CCOc1cnc(C(=O)Nc2ccc(F)c([C@]3(CF)C[C@@H](C(F)(F)F)OC(N)=N3)c2)cn1` [Example 38, N-(3-((4S,6S)-2-Amino-4-(fluoromethyl)-6-(trifluoromethyl)-5,6-dihydro-4H-1,3-oxazin-4-yl)-4-fluorophenyl)-5-(but-2-ynyloxy)pyrazine-2-carboxamide] the IC50 was 0.6 nM.

With `NC1=N[C@](CF)(c2cc(NC(=O)c3cnc(OC(F)F)cn3)ccc2F)C[C@@H](C(F)(F)F)O1` [Example 39, N-(3-((4S,6S)-2-Amino-4-(fluoromethyl)-6-(trifluoromethyl)-5,6-dihydro-4H-1,3-oxazin-4-yl)-4-fluorophenyl)-5-(difluoromethoxy)pyrazine-2-carboxamide] the IC50 was 0.4 nM.

`NC1=N[C@](CF)(c2cc(NC(=O)c3cnc(OCC(F)F)cn3)ccc2F)C[C@@H](C(F)(F)F)O1` [Example 40, N-(3-((4S,6S)-2-Amino-4-(fluoromethyl)-6-(trifluoromethyl)-5,6-dihydro-4H-1,3-oxazin-4-yl)-4-fluorophenyl)-5-(2,2-difluoroethoxyl)pyrazine-2-carboxamide] was tested, and the IC50 was 29 nM.

Molecule `NC1=N[C@](CF)(c2cc(NC(=O)c3cnc(OCC(F)(F)F)cn3)ccc2F)C[C@@H](C(F)(F)F)O1` [Example 41, N-(3-((4S,6S)-2-Amino-4-(fluoromethyl)-6-(trifluoromethyl)-5,6-dihydro-4H-1,3-oxazin-4-yl)-4-fluorophenyl)-5-(2,2,2-trifluoroethoxyl)pyrazine-2-carboxamide] has an IC50 of 17 nM.

With `Cc1cnc(C(=O)Nc2ccc(F)c([C@]3(CF)C[C@@H](C(F)(F)F)OC(N)=N3)c2)cn1` [Example 42, N-(3-((4S,6S)-2-Amino-4-(fluoromethyl)-6-(trifluoromethyl)-5,6-dihydro-4H-1,3-oxazin-4-yl)-4-fluorophenyl)-5-methylpyrazine-2-carboxamide] the IC50 was 64 nM.

Work on `NC1=N[C@](CF)(c2cc(NC(=O)c3cnc(OCF)cn3)ccc2F)C[C@@H](C(F)(F)F)O1` [Example 43, N-(3-((4S,6S)-2-Amino-4-(fluoromethyl)-6-(trifluoromethyl)-5,6-dihydro-4H-1,3-oxazin-4-yl)-4-fluorophenyl)-5-(fluoromethoxy)pyrazine-2-carboxamide] yielded an IC50 of 3 nM.

`NC1=N[C@](CF)(c2cc(NC(=O)c3cnc(C(F)F)cn3)ccc2F)C[C@@H](C(F)(F)F)O1` [Example 45, N-(3-((4S,6S)-2-Amino-4-(fluoromethyl)-6-(trifluoromethyl)-5,6-dihydro-4H-1,3-oxazin-4-yl)-4-fluorophenyl)-5-(difluoromethyl)pyrazine-2-carboxamide] was tested, and the IC50 was 39 nM.

With `NC1=N[C@](CF)(c2cc(NC(=O)c3coc(CF)n3)ccc2F)C[C@@H](C(F)(F)F)O1` [Example 47, N-(3-((4S,6S)-2-Amino-4-(fluoromethyl)-6-(trifluoromethyl)-5,6-dihydro-4H-1,3-oxazin-4-yl)-4-fluorophenyl)-2-(fluoromethyl)oxazole-4-carboxamide] the IC50 was 1 nM.

With `N#Cc1ccc(C(=O)Nc2ccc(F)c([C@]3(C(F)F)C[C@H](C(F)(F)F)OC(N)=N3)c2)nc1` [Example 48, N-(3-((4S,6R)-2-Amino-4-(difluoromethyl)-6-(trifluoromethyl)-5,6-dihydro-4H-1,3-oxazin-4-yl)-4-fluorophenyl)-5-cyanopicolinamide] the IC50 was 520 nM.

`N#Cc1ccc(C(=O)Nc2ccc(F)c([C@]3(C(F)F)C[C@@H](C(F)(F)F)OC(N)=N3)c2)nc1` [Example 49, N-(3-((4S,6S)-2-Amino-4-(difluoromethyl)-6-(trifluoromethyl)-5,6-dihydro-4H-1,3-oxazin-4-yl)-4-fluorophenyl)-5-cyanopicolinamide] showed an IC50 of 82 nM.
